Measured values as given in patent US20060223812A1, “Treating neurodegenerative conditions” (MAX-PLANCK-GESELLSCHAFT ZUR FORDERUNGDER WISSENSCHAFTEN, …, priority 2004, published 2006).

Legend:
[1] = molecular target: T1, K19 PHFs (Homo sapiens, UniProt P10636); assay: Depolymerisation of K19 PHFs at prolonged incubation times; assay type: biochemical; conditions: 0.5 μM compound, after 12 hours
T1 construct: construct K19 containing three repeats; made in house; host or cells: E. coli
Experimental: Untreated controls were measured in parallel and subtracted as background.

[2] = tested on: K18 filaments (Y310W); assay: Tryptophan fluorescence depolymerisation assay, K18 filaments; assay type: biochemical, human; conditions: 60 μM compound
Experimental: (§1) For the fluorescence depolymerisation assay, 60 μM inhibitor compound were added to pre-formed PHFs (10 μM) and incubated overnight at 37° C. PHFs were formed by incubation of tau construct K19/Y310W (50 μM) or K18/ΔK280/Y310W with 12.5 μM heparin in volume of 100 μl at 37° C. in PBS, pH 7.4. Incubation time was three days. The formation of aggregates was observed as a shift of the emission maximum from ˜354 nm to ˜340 nm.
All other compounds yielded emission maxima of the protein after treatment around 350-353 nm, close to the value of soluble tau, indicating a depolymerisation efficiency of about 80-90%.
(§2) FIG. 5: Disassembly of preformed PHFs measured by tryptophan fluorescence shift assay and filter assay. Experiments were performed with tau constructs containing the Y310W mutation as in FIG. 3.

[3] = tested on: PHFs from K18/ΔK280/Y310W; assay: Tryptophan fluorescence depolymerisation assay, K18/ΔK280; assay type: biochemical, human; conditions: 60 μM compound
Experimental: as §1, §2

[4] = tested on: N2a cells expressing K18/ΔK280; assay: Tau aggregation in cells, thioflavine S staining; assay type: cell-based, mouse; conditions: 15 μM emodin
Experimental: The tau construct K18/ΔK280 was expressed in the mouse neuroblastoma cell line N2a in an inducible manner under the control of the reverse tetracycline-controlled transactivator (rtTA) as described elsewhere (Gossen & Bujard, 2002). The inducible N2a/K18ΔK280 cells were cultured in MEM medium supplemented with 10% fetal calf serum, 2 mM glutamine and 0.1% nonessential amino acids. The expression of K18/ΔK280 was induced by addition 1 μg doxycyclin per 1 ml medium. The effect of aggregation inhibition was observed by adding the inhibitor emodin (15 μM). After 3-7 days the cells were harvested and tested for tau aggregation, thioflavin S fluorescence, and viability.
(§3) The levels and solubility of the K18/ΔK280 tau protein were determined by the method of Greenberg and Davies (1990) which makes use of the insolubility of protein aggregates after treatment with sarkosyl. The supernatant and sarcosyl-insoluble pellets were analysed by Western blotting with the pan-tau antibody K9JA and analysed by densitometry. Aggregation of tau in cells was tested by the fluorescence of thioflavine S. ThS signals were scored in three independent fields containing 40 cells each.
Two parallel cell cultures were incubated, one with 1 μg/ml doxycyclin (to induce the expression of the protein), another with 1 μg/ml doxycyclin and 15 μM emodin for 3 days. […]

[5] = tested on: N2a cells expressing K18/ΔK280; assay: Tau aggregation in cells, sarkosyl extraction and Western blot densitometry; assay type: cell-based, mouse; conditions: 15 μM emodin
Excerpt: A crucial test for the application of inhibitors is their effect in cell models of tauopathy. A neuroblastoma (N2a) cell line which allows inducible expression of the tau construct K18ΔK280 under the control of the tet-on transactivator was generated. This construct was chosen because it contains the FTDP17 mutation ΔK280 in the 4-repeat domain K18 which promotes the formation of β-structure and therefore aggregates readily, even in the absence of polyanionic inducers (von Bergen et al., 2001; {Barghorn, 2002).
The tau construct K18/ΔK280 was expressed in the mouse neuroblastoma cell line N2a in an inducible manner under the control of the reverse tetracycline-controlled transactivator (rtTA) as described elsewhere (Gossen & Bujard, 2002). […] After 3-7 days the cells were harvested and tested for tau aggregation, thioflavin S fluorescence, and viability.
as §3, with “each. […]” for “each.”

T1 sequence (P10636 with tags, fused parts or gaps isoform P10636-2 limits assumed): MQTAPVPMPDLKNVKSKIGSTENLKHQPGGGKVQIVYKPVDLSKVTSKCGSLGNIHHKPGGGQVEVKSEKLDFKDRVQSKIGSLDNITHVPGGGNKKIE

Question: How did the “depolymerisation of K19 PHFs” value [1] turn out when `O=C(c1ccccc1)c1ccc(O)c(O)c1O` [PHF005, 1-Phenyl-1-(2,3,4-trihydroxy-phenyl)-methanone] was run?
Answer: Nearly no effects

Question: And the “depolymerisation efficiency, K18 filaments, Trp fluorescence” value [2]?
Answer: 80%

Question: And the “depolymerising PHFs, K18/ΔK280, Trp fluorescence” value [3]?
Answer: most potent agent

Question: Which “inhibition of aggregation as measured by ThS” value [4] does the source give for `Cc1cc(O)c2c(c1)C(=O)c1cc(O)cc(O)c1C2=O` [Emodin, 1,3,8-Trihydroxy-6-methyl-anthraquinone] here?
Answer: about 2 fold

Question: And the “cells with ThS signal” value ([4]; 3 days induction, without emodin 28%)?
Answer: 15%

Question: What about the “reduction of sarkosyl-insoluble fraction” value ([5]; 7 days) of the same molecule?
Answer: 5 fold

Question: And the “sarkosyl-insoluble fraction of total cellular tau (K18/ΔK280)” value ([5]; 7 days induction, untreated 14%)?
Answer: 3%
